Read-outs that look alike come from different tables or passages of the source.
What was measured:
Experiment in all cases: biochemical
[1] = target: T1, MMP-1 (Homo sapiens, UniProt P03956); conditions: read-out: MMP-1 IC50
T1 construct: made in house; host or cells: transfected HT-1080 cells (provided by Dr. Harold Welgus, Washington University)
T1 sequence (P03956 100-469): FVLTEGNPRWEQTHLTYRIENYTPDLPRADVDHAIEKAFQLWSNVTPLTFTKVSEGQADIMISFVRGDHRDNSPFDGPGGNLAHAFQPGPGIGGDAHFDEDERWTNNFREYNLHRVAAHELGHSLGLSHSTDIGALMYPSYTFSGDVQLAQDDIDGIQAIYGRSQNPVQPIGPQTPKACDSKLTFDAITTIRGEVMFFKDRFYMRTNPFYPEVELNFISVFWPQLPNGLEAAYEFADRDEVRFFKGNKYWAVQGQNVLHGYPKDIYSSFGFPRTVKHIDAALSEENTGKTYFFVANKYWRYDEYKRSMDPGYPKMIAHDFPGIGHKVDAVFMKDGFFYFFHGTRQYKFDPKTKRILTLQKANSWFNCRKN
Outline: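 APMA- or trypsin-activated human MMPs (MMP-1 from transfected HT-1080 cells, MMP-2 from transfected cells) preincubated with inhibitor in 1% DMSO at room temperature, then 4 μM MCA-Pro-Leu-Gly-Leu-Dpa-Ala-Arg-NH2 added in Tris/NaCl/CaCl2 buffer pH 7.5. IC50 from fluorescence reduction versus inhibitor concentration.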

[2] = target: T2, MMP-13 (Homo sapiens, UniProt P45452); conditions: read-out: MMP-13 IC50
T2 construct: made in house; host or cells: baculovirus / insect cells
Outline: (§1)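 APMA- or trypsin-activated enzymes were preincubated with inhibitor for 5 min at room temperature, then the fluorogenic substrate MCA-Pro-Leu-Gly-Leu-Dpa-Ala-Arg-NH2 was added to a final 4 μM.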

[3] = target: T3, MMP-2 (Homo sapiens, UniProt P08253); conditions: read-out: MMP-2 IC50
T3 construct: made in house; provided by Dr. Gregory Goldberg, Washington University
T3 sequence (P08253 110-660): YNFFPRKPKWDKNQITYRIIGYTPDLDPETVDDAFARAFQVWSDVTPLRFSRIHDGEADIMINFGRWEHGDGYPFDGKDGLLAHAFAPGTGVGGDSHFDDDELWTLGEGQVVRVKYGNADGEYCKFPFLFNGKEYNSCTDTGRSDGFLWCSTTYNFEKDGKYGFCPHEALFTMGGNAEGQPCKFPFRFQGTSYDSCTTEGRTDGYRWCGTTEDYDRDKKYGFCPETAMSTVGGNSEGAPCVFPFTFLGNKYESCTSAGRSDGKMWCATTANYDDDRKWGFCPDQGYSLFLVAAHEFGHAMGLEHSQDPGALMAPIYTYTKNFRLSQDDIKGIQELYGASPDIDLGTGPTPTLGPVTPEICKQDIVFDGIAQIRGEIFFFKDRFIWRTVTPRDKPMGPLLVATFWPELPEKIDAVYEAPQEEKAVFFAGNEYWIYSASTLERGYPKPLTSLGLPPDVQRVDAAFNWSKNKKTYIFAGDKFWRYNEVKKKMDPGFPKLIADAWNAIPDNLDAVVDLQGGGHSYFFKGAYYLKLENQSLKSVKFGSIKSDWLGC
Outline: as §1

[4] = recombinant human MMP-1, MCA peptide substrate 4 μM, pH 7.5, room temperature
[5] = recombinant human MMP-13, MCA peptide substrate 4 μM, pH 7.5, room temperature
[6] = recombinant human MMP-2, MCA peptide substrate 4 μM, pH 7.5, room temperature

IC50 [1, 4] [nM] | IC50 [2, 5] [nM] | IC50 [3, 6] [nM] | SMILES | IC50 [1] [nM] | IC50 [2] [nM] | IC50 [3] [nM]
> 10000 | 10 | 600 | Cc1cc(C)cc(OC2CCN(c3ccc(S(=O)(=O)C4(C(=O)NO)CCOCC4)cc3)CC2)c1 [Example 187] | – | – | –
> 10000 | 4 | 200 | CCOCc1ccc(COC2CCN(c3ccc(S(=O)(=O)C4(C(=O)NO)CCOCC4)cc3)CC2)cc1 [Example 472] | – | – | –
> 10000 | 70 | 3000 | CCC(CC)COCc1ccc(COC2CCN(c3ccc(S(=O)(=O)C4(C(=O)NO)CCOCC4)cc3)CC2)cc1 [Example 602] | – | – | –
> 10000 | 290 | > 10000 | O=C(NO)C1(S(=O)(=O)c2ccc(N3CCC(Oc4c(Cl)cc(C(F)(F)F)cc4Cl)CC3)cc2)CCOCC1 [Example 570] | – | – | –
> 10000 | 150 | 550 | O=C(NO)C1(S(=O)(=O)c2ccc(N3CCC(O)CC3)cc2)CCOCC1 [Example 564] | – | – | –
> 10000 | 27.8 | 225 | O=C(NO)C1(S(=O)(=O)c2ccc(N3CCC(Oc4cccc(C(F)(F)F)c4)CC3)cc2)CCOCC1 [Example 620] | – | – | –
> 10000 | 25.4 | 140 | CCNCc1ccc(COC2CCN(c3ccc(S(=O)(=O)C4(C(=O)NO)CCOCC4)cc3)CC2)cc1 [Example 476] | – | – | –
> 10000 | 45.4 | 1300 | O=C(Nc1ccc(Oc2ccccc2)cc1)OC1CCN(c2ccc(S(=O)(=O)C3(C(=O)NO)CCOCC3)cc2)CC1 [Example 519] | – | – | –
> 10000 | 2.7 | 18.6 | O=C(NO)C1(S(=O)(=O)c2ccc(N3CCC(Oc4ccc([N+](=O)[O-])cc4)CC3)cc2)CCOCC1 [Example 546] | – | – | –
> 10000 | 75 | 3400 | CN(C)c1cccc(NC(=O)C2CCN(c3ccc(S(=O)(=O)C4(C(=O)NO)CCOCC4)cc3)CC2)c1 [Example 77] | – | – | –

More lines, now with the values behind:

SMILES | IC50 [1, 4] [nM] | IC50 [2, 5] [nM] | IC50 [3, 6] [nM] | IC50 [1] [nM] | IC50 [2] [nM] | IC50 [3] [nM]
O=C(NO)C1(S(=O)(=O)c2ccc(N3CCC(CC4CC4)CC3)cc2)CCOCC1 [Example 816] | > 10000 | 1200 | > 10000 | – | – | –
COc1ccc(C2CCN(c3ccc(S(=O)(=O)C4(C(=O)NO)CCOCC4)cc3)CC2)c(OC)c1 [Example 833] | > 10000 | 11 | 1750 | – | – | –
O=C(NO)C1(S(=O)(=O)c2ccc(Oc3ccc(OC(F)(F)F)cc3)cc2)CCN(c2cccnc2)CC1 [Example 392] | > 10000 | 0.2 | 0.1 | – | – | –
O=C(NO)C1(S(=O)(=O)c2ccc(N3CCC(Oc4ccccc4O)CC3)cc2)CCOCC1 [Example 835] | > 10000 | 6 | 20 | – | – | –
CC1CC(C)CN(C(=O)C2CCN(c3ccc(S(=O)(=O)C4(C(=O)NO)CCN(C(=O)CN5CCCCC5)CC4)cc3)CC2)C1 (stereo not drawn) [Example 296] | > 10000 | 50 | > 10000 | – | – | –
O=C(NO)C1(S(=O)(=O)c2ccc(N3CCN(c4ccccc4Cl)CC3)cc2)CCOCC1 [Example 88] | > 10000 | 9 | 40 | – | – | –
CC1CC(C)CN(C(=O)C2CCN(c3ccc(S(=O)(=O)C4(C(=O)NO)CCN(C(=O)CN5CCNCC5)CC4)cc3)CC2)C1 (stereo not drawn) [Example 290] | > 10000 | 50 | > 10000 | – | – | –
CC(=O)Nc1ccc(Oc2ccc(S(=O)(=O)C3(C(=O)NO)CCN(C4CC4)CC3)cc2)cc1 [Example 378] | 200 | 1.7 | 0.3 | – | – | –
O=C(NO)C1(S(=O)(=O)c2ccc(N3CC=C(c4ccccc4C(F)(F)F)CC3)cc2)CCOCC1 [Example 208] | > 10000 | 110 | 1000 | – | – | –
COc1ccc(C(=O)C2CCN(c3ccc(S(=O)(=O)C4(C(=O)NO)CCN(c5ccncc5)CC4)cc3)CC2)cc1 [Example 438] | > 10000 | 1.4 | 160 | – | – | –
C#CCN1CCC(C(=O)NO)(S(=O)(=O)c2ccc(Oc3ccc(OC(F)(F)F)cc3)cc2)CC1 [Example 349] | 2600 | 0.2 | < 0.1 | – | – | –
O=C(NO)C1(S(=O)(=O)c2ccc(Oc3ccc(OC(F)(F)F)cc3)cc2)CCSCC1 [Example 147] | 7700 | 0.4 | 0.2 | – | – | –
O=C(NO)C1(S(=O)(=O)c2ccc(Oc3ccc(OC(F)(F)F)cc3)cc2)CCN(C(=S)NCCN2CCOCC2)CC1 [Example 199] | 3000 | 0.2 | < 0.1 | – | – | –
C=CCC(=O)C1CCN(c2ccc(S(=O)(=O)C3(C(=O)NO)CCOCC3)cc2)CC1 [Example 798] | > 10000 | 20 | 210 | – | – | –
CSc1nccc(N2CCC(C(=O)NO)(S(=O)(=O)c3ccc(Oc4ccc(OC(F)(F)F)cc4)cc3)CC2)n1 [Example 410] | > 10000 | 0.6 | 0.25 | – | – | –
O=C(C1CCN(c2ccc(S(=O)(=O)C3(C(=O)NO)CCOCC3)cc2)CC1)N1CCN(c2cccc(Cl)c2)CC1 [Example 43] | – | – | – | > 10000 | 17.9 | 5000
O=C(NO)C1(S(=O)(=O)c2ccc(Oc3ccc(OC(F)(F)F)cc3)cc2)CCS(=O)(=O)CC1 [Example 157] | > 10000 | 0.5 | 0.2 | – | – | –
O=C(CNCCO)N1CCC(C(=O)NO)(S(=O)(=O)c2ccc(Oc3ccc(C(F)(F)F)cc3)cc2)CC1 [Example 321] | > 10000 | 0.5 | 0.3 | – | – | –
CC(C)(C)c1ccc(C(=O)C2CCN(c3ccc(S(=O)(=O)C4(C(=O)NO)CCOCC4)cc3)CC2)cc1 [Example 789] | – | 12.2 | 3700 | > 10000 | – | –
O=C(NO)C1(S(=O)(=O)c2ccc(N3CCCCC3CCOCc3cccc(C(F)(F)F)c3)cc2)CCOCC1 (stereo not drawn) [Example 512] | > 10000 | 7700 | > 10000 | – | – | –
O=C(NO)C1(S(=O)(=O)c2ccc(N3CCCN(S(=O)(=O)c4ccc(OC(F)(F)F)cc4)CC3)cc2)CCOCC1 [Example 699] | > 10000 | 50 | 455 | – | – | –
CC1CC(C)CN(C(=O)C2CCN(c3ccc(S(=O)(=O)C4(C(=O)NO)CCN(C(C)C)CC4)cc3)CC2)C1 (stereo not drawn) [Example 458] | > 10000 | 210 | 2100 | – | – | –
CC1CC(C)CN(C(=O)C2CCN(c3ccc(S(=O)(=O)C4(C(=O)NO)CCN(C(=O)Cn5cncn5)CC4)cc3)CC2)C1 (stereo not drawn) [Example 311] | > 10000 | 120 | > 10000 | – | – | –

— US6750228B1, “Aromatic sulfone hydroxamic acid metalloprotease inhibitor” (priority 1997, dated 2004)
